Measurements from patent US11311522B1 (Cavion, Inc., priority 2018, dated 2022).

What was measured:
[1] = Excretion of 14C-labeled CX-8998 in rats; type: in vivo, rat; conditions: 20 mg/kg oral
Text: Glucuronide conjugates of the oxygenated metabolites are detected in human, monkey, and dog hepatocyte preparations. […] However, the abundance of CYP3A5, CYP2C19, and CYP2D6 in human liver microsomes is low (2%-5%) relative to the primary contributors, CYP3A4 (˜30%) and CYP2C9 (˜20%). […] Information on reproductive and developmental toxicology was obtained in a 28-day pivotal female fertility study in rats and in preliminary embryo-fetal development studies in rats and rabbits.

[2] = tested on: respiratory function; assay: Respiratory function, whole body plethysmography; conditions: female, rat, in vivo
[3] = Respiratory function, whole body plethysmography; conditions: female, rat; for Cmax: plasma, po
[4] = PN002/Part I: safety and tolerability; type: in vivo, human
Description: All adverse events were mild or moderate in intensity. No serious adverse events were reported. […] Treatment periods were separated by a minimum 1-week washout period after administration of the 2 mg dose in Period 1 and by a minimum 2-week washout after subsequent treatment periods. Clinical safety was monitored throughout the study by adverse events, clinical laboratory tests, vital signs, ECGs, and ECG telemetry. *The study was planned to include 8 subjects. A ninth subject was randomized to replace a subject who was discontinued after Period 1 (because of a prolonged QTc interval after administration of the 2 mg dose, which was considered by the investigator to be unrelated to the study drug). […] The most frequently reported adverse events were relaxation, fuzzy head, headache, lightheadedness, dizziness, and mood alteration, all of which were transient and generally mild or moderate in severity.

With CC(C)c1ccc(CC(=O)N[C@H](C)c2ccc(OCC(F)(F)F)cn2)cc1 [CX-8998] the “Dose excreted in feces as unchanged drug” value [1] was “Less than 1%”, the Radioactivity in feces [1] was “approximately 5%” and the “Radioactivity recovered in bile” value [1] was 46%. The “Radioactivity recovered in urine” value [1] was 43%, the “Recovered radioactivity excreted in the first day” value [1] was over 85% and the “Recovery of label after 72 hours” value [1] was about 96%. The “NOEL for respiratory function” value [2] was under 30 mg/kg, the NOAEL ([3]; in vivo) was 30 mg/kg and the Cmax ([3]; 300 mg/kg) was about 28 µM. For the same compound, the Cmax ([3]; 2000 mg/kg) was about 34 µM, the “At least 1 adverse event” value ([4]; 2 mg) was 5 (71.4) n (%) and the Breathing difficult ([4]; 2 mg) was 0 n (%). For the same compound, the Dizziness ([4]; 2 mg) was 0 n (%), the Dizziness upon standing ([4]; 2 mg) was 0 n (%) and the Dry mouth ([4]; 2 mg) was 0 n (%). For the same compound, the Dry throat ([4]; 2 mg) was 0 n (%), the “Eye Disorders” value ([4]; 2 mg) was 0 n (%) and the Feeling drunk ([4]; 2 mg) was 0 n (%). For the same compound, the Feeling hot ([4]; 2 mg) was 0 n (%), the Feeling of relaxation ([4]; 2 mg) was 1 (14.3) n (%) and the Feeling of warmth ([4]; 2 mg) was 0 n (%). For the same compound, the Floating feeling ([4]; 2 mg) was 1 (14.3) n (%), the Fuzzy head ([4]; 2 mg) was 0 n (%) and the “Gastrointestinal Disorders” value ([4]; 2 mg) was 1 (14.3) n (%). The Headache ([4]; 2 mg) was 2 (28.6) n (%), the Lightheadedness ([4]; 2 mg) was 0 n (%) and the Nasal congestion ([4]; 2 mg) was 0 n (%). For the same compound, the “Nervous System Disorders” value ([4]; 2 mg) was 2 (28.6) n (%), the Paraesthesia of fingers ([4]; 2 mg) was 0 n (%) and the “Respiratory, Thoracic and Mediastinal Disorders” value ([4]; 2 mg) was 1 (14.3) n (%). The Tiredness ([4]; 2 mg) was 0 n (%), the Vision blurred ([4]; 2 mg) was 0 n (%) and the Visual disturbance ([4]; 2 mg) was 0 n (%). For the same compound, the “At least 1 adverse event” value ([4]; 4 mg) was 5 (83.3) n (%), the Breathing difficult ([4]; 4 mg) was 0 n (%) and the Dizziness ([4]; 4 mg) was 0 n (%). For the same compound, the Dizziness upon standing ([4]; 4 mg) was 0 n (%), the Dry mouth ([4]; 4 mg) was 0 n (%) and the Dry throat ([4]; 4 mg) was 0 n (%). For the same compound, the “Eye Disorders” value ([4]; 4 mg) was 1 (16.7) n (%), the Feeling drunk ([4]; 4 mg) was 0 n (%) and the Feeling hot ([4]; 4 mg) was 0 n (%). For the same compound, the Feeling of relaxation ([4]; 4 mg) was 1 (16.7) n (%), the Feeling of warmth ([4]; 4 mg) was 0 n (%) and the Floating feeling ([4]; 4 mg) was 1 (16.7) n (%). For the same compound, the Fuzzy head ([4]; 4 mg) was 1 (16.7) n (%), the Headache ([4]; 4 mg) was 3 (50.0) n (%) and the Lightheadedness ([4]; 4 mg) was 1 (16.7) n (%). The Nasal congestion ([4]; 4 mg) was 1 (16.7) n (%), the “Nervous System Disorders” value ([4]; 4 mg) was 5 (83.3) n (%) and the Paraesthesia of fingers ([4]; 4 mg) was 0 n (%). For the same compound, the “Respiratory, Thoracic and Mediastinal Disorders” value ([4]; 4 mg) was 1 (16.7) n (%), the Tiredness ([4]; 4 mg) was 1 (16.7) n (%) and the Vision blurred ([4]; 4 mg) was 1 (16.7) n (%). For the same compound, the Visual disturbance ([4]; 4 mg) was 0 n (%), the “At least 1 adverse event” value ([4]; 8 mg) was 6 (100) n (%) and the Breathing difficult ([4]; 8 mg) was 1 (16.7) n (%). The Dizziness ([4]; 8 mg) was 2 (33.3) n (%), the Dizziness upon standing ([4]; 8 mg) was 1 (16.7) n (%) and the Dry mouth ([4]; 8 mg) was 4 (66.7) n (%). For the same compound, the Dry throat ([4]; 8 mg) was 1 (16.7) n (%), the “Eye Disorders” value ([4]; 8 mg) was 2 (33.3) n (%) and the Feeling drunk ([4]; 8 mg) was 0 n (%). The Feeling hot ([4]; 8 mg) was 2 (33.3) n (%), the Feeling of relaxation ([4]; 8 mg) was 0 n (%) and the Feeling of warmth ([4]; 8 mg) was 0 n (%). The Floating feeling ([4]; 8 mg) was 1 (16.7) n (%), the Fuzzy head ([4]; 8 mg) was 2 (33.3) n (%) and the “Gastrointestinal Disorders” value ([4]; 8 mg) was 4 (66.7) n (%). For the same compound, the Headache ([4]; 8 mg) was 3 (50.0) n (%), the Lightheadedness ([4]; 8 mg) was 3 (50.0) n (%) and the Nasal congestion ([4]; 8 mg) was 1 (16.7) n (%). For the same compound, the “Nervous System Disorders” value ([4]; 8 mg) was 6 (100.0) n (%), the Paraesthesia of fingers ([4]; 8 mg) was 0 n (%) and the “Respiratory, Thoracic and Mediastinal Disorders” value ([4]; 8 mg) was 3 (50.0) n (%). The Tiredness ([4]; 8 mg) was 2 (33.3) n (%), the Vision blurred ([4]; 8 mg) was 1 (16.7) n (%) and the Visual disturbance ([4]; 8 mg) was 1 (16.7) n (%). The “At least 1 adverse event” value ([4]; 12 mg) was 5 (83.3) n (%), the Breathing difficult ([4]; 12 mg) was 0 n (%) and the Dizziness ([4]; 12 mg) was 0 n (%). For the same compound, the Dizziness upon standing ([4]; 12 mg) was 0 n (%), the Dry mouth ([4]; 12 mg) was 1 (16.7) n (%) and the Dry throat ([4]; 12 mg) was 0 n (%). The “Eye Disorders” value ([4]; 12 mg) was 1 (16.7) n (%), the Feeling drunk ([4]; 12 mg) was 1 (16.7) n (%) and the Feeling hot ([4]; 12 mg) was 0 n (%). For the same compound, the Feeling of relaxation ([4]; 12 mg) was 2 (33.3) n (%), the Feeling of warmth ([4]; 12 mg) was 0 n (%) and the Floating feeling ([4]; 12 mg) was 0 n (%). The Fuzzy head ([4]; 12 mg) was 0 n (%), the Headache ([4]; 12 mg) was 3 (50.0) n (%) and the Lightheadedness ([4]; 12 mg) was 0 n (%). The Nasal congestion ([4]; 12 mg) was 0 n (%), the “Nervous System Disorders” value ([4]; 12 mg) was 4 (66.7) n (%) and the Paraesthesia of fingers ([4]; 12 mg) was 0 n (%). The “Respiratory, Thoracic and Mediastinal Disorders” value ([4]; 12 mg) was 1 (16.7) n (%), the Tiredness ([4]; 12 mg) was 0 n (%) and the Vision blurred ([4]; 12 mg) was 1 (16.7) n (%). The Visual disturbance ([4]; 12 mg) was 0 n (%), the “At least 1 adverse event” value ([4]; 18 mg) was 6 (100.0) n (%) and the Breathing difficult ([4]; 18 mg) was 2 (33.3) n (%). For the same compound, the Dizziness ([4]; 18 mg) was 2 (33.3) n (%), the Dizziness upon standing ([4]; 18 mg) was 1 (16.7) n (%) and the Dry mouth ([4]; 18 mg) was 0 n (%). For the same compound, the Dry throat ([4]; 18 mg) was 1 (16.7) n (%), the “Eye Disorders” value ([4]; 18 mg) was 2 (33.3) n (%) and the Feeling drunk ([4]; 18 mg) was 1 (16.7) n (%). The Feeling hot ([4]; 18 mg) was 2 (33.3) n (%), the Feeling of relaxation ([4]; 18 mg) was 2 (33.3) n (%) and the Feeling of warmth ([4]; 18 mg) was 2 (33.3) n (%). The Floating feeling ([4]; 18 mg) was 2 (33.3) n (%), the Fuzzy head ([4]; 18 mg) was 2 (33.3) n (%) and the “Gastrointestinal Disorders” value ([4]; 18 mg) was 3 (50.0) n (%). The Headache ([4]; 18 mg) was 2 (33.3) n (%), the Lightheadedness ([4]; 18 mg) was 1 (16.7) n (%) and the Nasal congestion ([4]; 18 mg) was 0 n (%). For the same compound, the “Nervous System Disorders” value ([4]; 18 mg) was 6 (100.0) n (%), the Paraesthesia of fingers ([4]; 18 mg) was 2 (33.3) n (%) and the “Respiratory, Thoracic and Mediastinal Disorders” value ([4]; 18 mg) was 2 (33.3) n (%). For the same compound, the Tiredness ([4]; 18 mg) was 1 (16.7) n (%), the Vision blurred ([4]; 18 mg) was 0 n (%) and the Visual disturbance ([4]; 18 mg) was 2 (33.3) n (%). The “At least 1 adverse event” value ([4]; any dose) was 9 (100.0) n (%), the Breathing difficult ([4]; any dose) was 2 (22.2) n (%) and the Dizziness ([4]; any dose) was 3 (33.3) n (%). For the same compound, the Dizziness upon standing ([4]; any dose) was 2 (22.2) n (%), the Dry mouth ([4]; any dose) was 4 (44.4) n (%) and the Dry throat ([4]; any dose) was 2 (22.2) n (%). The “Eye Disorders” value ([4]; any dose) was 4 (44.4) n (%), the Feeling drunk ([4]; any dose) was 2 (22.2) n (%) and the Feeling hot ([4]; any dose) was 2 (22.2) n (%). For the same compound, the Feeling of relaxation ([4]; any dose) was 5 (55.6) n (%), the Feeling of warmth ([4]; any dose) was 2 (22.2) n (%) and the Floating feeling ([4]; any dose) was 2 (22.2) n (%). The Fuzzy head ([4]; any dose) was 3 (33.3) n (%), the “Gastrointestinal Disorders” value ([4]; any dose) was 6 (66.7) n (%) and the Headache ([4]; any dose) was 7 (77.8) n (%). For the same compound, the Lightheadedness ([4]; any dose) was 4 (44.4) n (%), the Nasal congestion ([4]; any dose) was 2 (22.2) n (%) and the “Nervous System Disorders” value ([4]; any dose) was 8 (88.8) n (%). For the same compound, the Paraesthesia of fingers ([4]; any dose) was 2 (22.2) n (%), the “Respiratory, Thoracic and Mediastinal Disorders” value ([4]; any dose) was 4 (44.4) n (%) and the Tiredness ([4]; any dose) was 3 (33.3) n (%). For the same compound, the Vision blurred ([4]; any dose) was 3 (33.3) n (%), the Visual disturbance ([4]; any dose) was 3 (33.3) n (%) and the Tolerability ([4]; single doses up to 18 mg) was “generally well tolerated”.
